Source: PMC8972088 (Bioorganic & medicinal chemistry, 2021)

Assays:
[1] = Reaction of COB-187 with ethanethiol and tributylphosphine in THF; assay type: physicochemical; details: room temperature to reflux, HPLC and 1H-NMR
GSK-3β [2] = molecular target: T1, GSK-3β (Homo sapiens, UniProt P49841); assay: GSK-3β kinase assay in presence of reducing agents; details: inhibitor 10 μM; for effect of reducing agents on potency: 2 mM DTT, GSH or TCEP, 84 min
MAPKAPK5 (PRAK) = molecular target: T2, MAPKAPK5 (PRAK) (Homo sapiens, UniProt Q8IW41); assay: Kinase panel screen, Z'-LYTE; assay type: biochemical; details: read-out: Inhibition MAPKAPK5 (PRAK), 2 μM COB-187, ATP Km, ±SD n=2
T2 sequence (Q8IW41 1-473): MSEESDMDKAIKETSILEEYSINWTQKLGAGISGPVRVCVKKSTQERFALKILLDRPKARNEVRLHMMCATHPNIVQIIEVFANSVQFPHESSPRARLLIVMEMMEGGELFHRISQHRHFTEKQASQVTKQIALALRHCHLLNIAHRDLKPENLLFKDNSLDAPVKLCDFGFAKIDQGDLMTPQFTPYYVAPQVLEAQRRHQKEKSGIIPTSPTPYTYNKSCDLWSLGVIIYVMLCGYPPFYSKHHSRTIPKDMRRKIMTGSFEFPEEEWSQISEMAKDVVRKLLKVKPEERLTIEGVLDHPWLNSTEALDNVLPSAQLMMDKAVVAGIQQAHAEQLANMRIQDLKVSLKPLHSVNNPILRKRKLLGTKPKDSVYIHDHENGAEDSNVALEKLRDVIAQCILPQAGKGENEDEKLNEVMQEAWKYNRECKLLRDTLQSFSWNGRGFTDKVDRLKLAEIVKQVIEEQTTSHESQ

KDR (VEGFR2) = KDR (VEGFR2) (Homo sapiens, UniProt P35968); assay: Kinase panel screen, Z'-LYTE; assay type: biochemical; details: read-out: Inhibition KDR (VEGFR2)
GSK-3β C199A mutant = GSK-3β C199A mutant (Homo sapiens, UniProt P49841, C199A); assay: PhosphoSens kinase assay, GSK-3β C199A mutant; assay type: biochemical; details: C199A vs wild type GSK-3β
GSK-3β [3] = molecular target: T1, GSK-3β; assay: PhosphoSens real-time kinase assay, wild type GSK-3β; assay type: biochemical; details: for increase in potency with preincubation: 3-hour preincubation vs no preincubation
GSK-3β [4] = molecular target: T1, GSK-3β; assay: Jump dilution assay; assay type: biochemical; details: 3-hour pre-incubation with 50 nM GSK-3β, 100-fold dilution; 2 mM ATP

T1 sequence (P49841 whole entry): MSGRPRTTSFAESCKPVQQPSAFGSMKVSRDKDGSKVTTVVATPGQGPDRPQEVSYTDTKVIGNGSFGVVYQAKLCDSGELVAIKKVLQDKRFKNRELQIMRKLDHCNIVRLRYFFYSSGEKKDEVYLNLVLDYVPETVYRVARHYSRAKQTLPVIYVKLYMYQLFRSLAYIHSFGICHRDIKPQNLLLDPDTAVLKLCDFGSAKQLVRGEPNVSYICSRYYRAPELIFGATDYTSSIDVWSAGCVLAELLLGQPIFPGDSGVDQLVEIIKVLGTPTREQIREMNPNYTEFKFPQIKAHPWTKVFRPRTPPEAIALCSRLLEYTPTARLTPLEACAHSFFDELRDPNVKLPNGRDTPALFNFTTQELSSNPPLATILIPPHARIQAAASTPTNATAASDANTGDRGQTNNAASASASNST
Sequence of GSK-3β C199A mutant (P49841 whole entry C199A): as the sequence (P49841 whole entry) above, with C199A counted along it
Sequence of KDR (VEGFR2) (P35968 20-1356): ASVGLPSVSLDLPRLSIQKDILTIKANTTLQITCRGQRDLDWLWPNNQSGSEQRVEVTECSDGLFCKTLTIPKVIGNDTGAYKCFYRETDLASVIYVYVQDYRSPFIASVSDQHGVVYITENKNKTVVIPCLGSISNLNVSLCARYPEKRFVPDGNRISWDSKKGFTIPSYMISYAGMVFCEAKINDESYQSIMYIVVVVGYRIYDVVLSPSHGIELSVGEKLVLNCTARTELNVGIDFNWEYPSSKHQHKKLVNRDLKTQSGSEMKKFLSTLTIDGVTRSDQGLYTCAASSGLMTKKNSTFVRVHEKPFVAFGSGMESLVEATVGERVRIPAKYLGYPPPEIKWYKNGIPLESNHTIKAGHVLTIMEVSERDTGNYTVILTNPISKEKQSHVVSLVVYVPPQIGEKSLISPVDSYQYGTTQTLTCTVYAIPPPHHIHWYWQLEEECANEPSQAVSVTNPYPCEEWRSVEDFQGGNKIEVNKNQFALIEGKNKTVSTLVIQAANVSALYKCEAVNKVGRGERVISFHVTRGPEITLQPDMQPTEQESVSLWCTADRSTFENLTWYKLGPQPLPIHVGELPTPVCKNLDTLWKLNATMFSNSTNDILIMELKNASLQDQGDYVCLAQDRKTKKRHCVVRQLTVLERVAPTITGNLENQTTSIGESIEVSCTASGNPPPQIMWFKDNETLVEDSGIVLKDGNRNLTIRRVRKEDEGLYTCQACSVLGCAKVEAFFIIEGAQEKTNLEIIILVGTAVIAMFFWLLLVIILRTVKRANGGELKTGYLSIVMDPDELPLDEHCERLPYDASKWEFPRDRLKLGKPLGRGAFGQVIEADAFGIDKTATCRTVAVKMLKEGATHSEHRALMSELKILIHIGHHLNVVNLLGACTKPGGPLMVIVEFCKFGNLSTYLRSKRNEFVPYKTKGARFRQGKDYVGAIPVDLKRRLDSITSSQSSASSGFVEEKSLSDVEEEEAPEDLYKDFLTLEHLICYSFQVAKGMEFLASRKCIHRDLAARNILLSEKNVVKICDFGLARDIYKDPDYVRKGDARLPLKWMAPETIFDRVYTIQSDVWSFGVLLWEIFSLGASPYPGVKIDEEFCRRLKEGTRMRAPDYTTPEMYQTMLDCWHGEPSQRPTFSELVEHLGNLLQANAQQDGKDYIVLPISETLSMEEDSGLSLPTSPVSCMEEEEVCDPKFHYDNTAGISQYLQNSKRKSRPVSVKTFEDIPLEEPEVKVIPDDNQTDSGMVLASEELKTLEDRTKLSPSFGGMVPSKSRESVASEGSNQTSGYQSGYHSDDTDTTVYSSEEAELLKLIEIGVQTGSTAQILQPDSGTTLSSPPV

reaction with ethanethiol and tributylphosphine [1]	inhibition at 2 µM (MAPKAPK5 (PRAK))	inhibition at 2 µM (KDR (VEGFR2))	decrease in potency for the mutant versus wild type (GSK-3β C199A mutant)	increase in potency with preincubation (GSK-3β [3])	average k4 from fit of kobs vs concentration to Eq. 8 (induced-fit) (GSK-3β [3]; average of five replicates, ± SD)	effect of DTT or GSH on potency (GSK-3β [2]; 2 mM DTT or GSH)	effect of TCEP on potency (GSK-3β [2]; 2 mM TCEP)	Structure (SMILES)	effect of reducing agents on potency (GSK-3β [2])	recovery of GSK-3β activity upon jump dilution (GSK-3β [4])
no evidence of any reaction	~64%	8 ± 8.2%	> 300 fold	< 4 fold	2.9 × 10^−4 (±4.8 × 10^−4 SD) 1/min	–	–	OC1(c2ccccc2)CSC(=S)N1Cc1ccncc1 (centres unmarked) [COB-187, 4-hydroxy-4-phenyl-3-(pyridin-4-ylmethyl)thiazolidine-2-thione]	significantly diminished	–
–	–	–	–	no significant increase	–	–	–	O=C1Cc2c([nH]c3ccc([N+](=O)[O-])cc23)-c2ccccc2N1 [Alsterpaullone]	–	recovered most of its activity upon dilution
–	–	–	–	–	–	not significantly altered	significant but modest reduction	COc1ccc(CNC(=O)Nc2ncc([N+](=O)[O-])s2)cc1 [AR-A014418]	–	–

Structure (SMILES)	reaction with ethanethiol and tributylphosphine [1]	inhibition at 2 µM (MAPKAPK5 (PRAK))	inhibition at 2 µM (KDR (VEGFR2))	decrease in potency for the mutant versus wild type (GSK-3β C199A mutant)	increase in potency with preincubation (GSK-3β [3])	average k4 from fit of kobs vs concentration to Eq. 8 (induced-fit) (GSK-3β [3]; average of five replicates, ± SD)	effect of DTT or GSH on potency (GSK-3β [2]; 2 mM DTT or GSH)	effect of TCEP on potency (GSK-3β [2]; 2 mM TCEP)	effect of reducing agents on potency (GSK-3β [2])	recovery of GSK-3β activity upon jump dilution (GSK-3β [4])
COc1cc(O)c2c(c1)[C@H]1O[C@@H]1C[C@H](O)[C@H](O)C(=O)/C=C\C[C@H](C)OC2=O [Hypothemycin]	–	–	–	–	~ 17 fold	–	–	–	significantly diminished	did not recover activity upon jump dilution
